From US6747036B2, “Methods of treating leukemia” (BioChem Pharma Inc., priority 1999, dated 2004)

Key:
[1] = test system: advanced leukemia; assay: Evaluation of β-L-oddC in patients with advanced leukemia previously treated with Ara-C; format: in vivo, human; details: twelve patients treated; 30 min daily infusion for 5 consecutive days; responders 2 each at 1.08 and 1.62 mg/m2; three AML, one CML
Description: Evaluation of β-L-oddC in Patients with Advanced Leukemia.
The study involved treatment of patients with advanced leukemia that had been previously treated with Citarabine (Ara-C). […] Twelve patients were treated with an initial course at daily doses of 0.72 mg/m2 (4 patients), 1.08 mg/m^2 (5 patients), 1.62 mg/m^2 (3 patients) given as a daily infusion over 30 minutes for 5 consecutive days. Five patients were treated with second courses at daily doses of 1.08 mg/m^2 (3 patients), 1.62 mg/m^2 (2 patients) given over 5 consecutive days as above. 1 patient was treated with a 3rd 5 day course at the 2.43 mg/m^2 daily dose level. 4 patients (2 each at the 1.08 mg/m^2 and 1,62 mg/m^2 levels) have shown a transient decrease in peripheral blood and bone marrow blasts. Of these four patients, three had acute mylogenous leukemia and one had chronic mylogenous leukemia.

[2] = test system: Human Leukemia (HL60) xenograft; assay: β-L-OddC/doxorubicin combination study in a human leukemia (HL60) xenograft survival model; format: in vivo, female SCID mice; details: start day 10
Description: β-L-OddC/doxorubicin Combination Study in a Human Leukemia (HL60) Xenograft Model
A study was conducted to evaluate the synergistic or additive therapeutic effect of β-L-OddC in combination with the currently known anticancer agent Doxorubicin. The model that was utilized is a survival model consisting of female SCID mice which are inoculated in the abdomen region (i.p.) with 15×10^6 HL60 cells in log phase growth. This corresponds to day 0 of the experiment. Administration of anti-cancer drug is started 10 days after tumor cell inoculation.
10 animals were used per group for β-L-oddC alone, Doxorubicin alone and the combination of β-L-oddC with Doxorubicin. Each groups received the drugs alone or in combination intraperitoneal once daily for 5 consecutive days.
Augmentation of survival time was calculated by substracting from the median survival time of group two to six, which corresponds to the day when the fifth mouse dies, the median survival time of control group 1 and multiplying by 100.

SMILES | patients showing a transient decrease in peripheral blood and bone marrow blasts [1] | Augmentation Survival Time ([2]; β-L-OddC 1 mg/kg i.p. once daily for 5 days) | Augmentation Survival Time ([2]; Doxorubicin 0.2 mg/kg i.p. once daily for 5 days) | Augmentation Survival Time ([2]; Doxorubicin 2 mg/kg i.p. once daily for 5 days)
Nc1ccn([C@@H]2CO[C@H](CO)O2)c(=O)n1 [β-L-OddC, (−)-β-L-Dioxolane-Cytidine] | 4 patients | 55% |  | 
COc1cccc2c1C(=O)c1c(O)c3c(c(O)c1C2=O)C[C@@](O)(C(=O)CO)C[C@@H]3O[C@H]1C[C@H](N)[C@H](O)[C@H](C)O1 [Doxorubicin] |  |  | 25% | 50%
